Measured values reported in publication PMC5614690, “Peptide translocation across MOMP, the major outer membrane channel from Campylobacter jejuni” (Biochemistry and Biophysics Reports, 2017).

What was measured:
MOMP channel = assay: Single-channel ion-current measurement of MOMP in planar lipid bilayer (peptide binding and translocation); design: species or system Campylobacter jejuni (strain 85 H); conditions: for ion-current blockage of MOMP monomer: 3 µM peptide, +125 mV; for kon (association rate) / koff (dissociation rate): 10 µM peptide, single MOMP monomer (MOMP cis); for kon (association rate): DPhPC bilayer; for Ka (equilibrium binding constant): Ka = kon/koff; for on-rate (range given): Penta- and Hepta-arginine together; for koff (dissociation rate): koff = 1/τ; for association rate kon as a function of applied voltage: +150 to +250 mV, Penta- vs Hepta-arginine, Fig. 3A; for translocation across MOMP: concluded from voltage dependence of ion-current fluctuations; for residence time, cis vs trans peptide addition / frequency of binding events, cis vs trans peptide addition: control: peptide on cis (ground) side; for residence time, cis vs trans peptide addition: –125 to –250 mV; for frequency of binding events, cis vs trans peptide addition: –150 and –250 mV; for threshold potential for successful translocation: peptide trans, MOMP cis
Procedure: The planar lipid bilayer was formed using solvent free lipid bilayer technique, [29]. In brief, the cuvettes used for our bilayer experiments consist of cis (electrical ground and side of protein addition if not otherwise indicated) and trans chambers separated by a 25 µm thick Teflon film (Goodfellow, Cambridge, UK) carrying an aperture with a diameter of 40–70 µm. Prior to forming a lipid bilayer, the aperture is pre-painted with 1 μl of 1% hexadexane in hexane. 5% solution of DPhPC in hexane is commonly used as lipid stock. The chambers are filled with electrolyte solution which typically consists of 1 M KCl, 10 mM MES, pH 6.0 with a total solution volume of 2.5 ml. On top of the aqueous phase about 1 μl of the lipid stock solution is placed. After 10 min allowing for evaporation of solvent, the membrane is formed by raising and lowering the water level. To investigate the outer membrane protein of C. jejuni, MOMP was added to the cis (ground) side of the chamber to a final concentration of 5 ng/ml and the channel insertion was facilitated by rapid mixing of the content of the chamber while applying a transmembrane potential of −199 mV. Electrical recordings were made through a pair of Ag/AgCl electrodes (World Precision Instruments, Sarasota, FL, USA), attached to an Axon Instruments 200B amplifier (Axon Instruments Inc., Sunnyvale, CA, USA) in the voltage clamp mode. Data were filtered by a low pass Bessel filter at 10 kHz and directly saved into the computer memory with a sampling frequency of 50 kHz. Data analysis was performed using Clampfit software of version 10.4 (Axon Instruments Inc., Sunnyvale, CA, USA). To obtain quantitative information on the interaction of peptides with the channel we assume that peptide binding or penetration to the channel cause sufficiently strong reduction of the ion-current compared to the typical background noise. […] This is even more pronounced for longer peptides (Fig. 1C and D).
Fig. 1 Typical ion-conductance traces of monomeric MOMP in presence of poly-arginines at +125 mV. A. In the absence of peptides; B. 3 µM of Tri-arginine; C. […] Experimental conditions: 1 M KCl, 10 mM MES, pH 6.0, T= 20 °C. The peptide is added to the trans compartment of the cuvette corresponding to the electrode at positive voltage. For the sake of clarity the traces were filtered at 5 kHz. MOMP is added on the cis (ground) side (n = 4).
For further analysis we should note that in our experiment we work under dilute concentrations and thus, the number of entries is in good approximation proportional to the concentration of the peptides in solution. The on-rate kon (association rate) is obtained by counting the number of ion-current blockage events per time n [s^−1] divided by the concentration [c] of the peptide, [26], [29], [30]. Furthermore, in some cases we have trimeric MOMP and the ion-current blockages may originate independently from one of the three monomers. kon=n/3[c]
On the other hand the opening is a statistical event and correlated to the strength of the binding. A channel which is closed at t = 0 will have the probability R(t) to open at time t. Within the above described simple binding model an exponential function R(t) = e^-t/τ. Fitting the life-time distribution of a closed channel by an exponential parameter τ (or dwell time) yields the off-rate (dissociation rate) koff = 1/τ [30]. The equilibrium binding constant Ka [M^−1] of the peptide to the channel is given by the ratio of the rates Ka = kon/koff.
Fig. 2 Analysis of the ion-current fluctuations. A. Hepta-arginine concentration dependence of binding events; data were analysed at applied voltages, +150 and +250 mV; and B. Frequency of binding events of the peptide (10 µM) vs. applied transmembrane potential. Experimental conditions: 1 M KCl, 10 mM MES, pH 6.0, T= 20 °C. MOMP is added on the cis (ground) side (n = 4).
A. Voltage dependence of the on-rate; and B. off-rate. […]

Nocardia channel = conditions: ref [25]; cited from earlier work
Text: Binding and translocation can be distinguished using the voltage dependency of the association and disassociation rates. If the time spent by a charged molecule inside the channel increases with increasing voltage, we conclude that the molecule is pulled inside on one side of the channel without being translocated. On the other hand, if the residence time decreases with increasing voltage we conclude that the molecule is able to follow the electric field gradient leaving faster to the other side. In the case of Hepta-arginine, the residence time increased from ~100 to 410 µs with increa ...

[1] = trans side, 1 M KCl, 10 mM MES, pH 6.0, 20 °C, n = 4
[2] = +150 mV, trans side, 1 M KCl, 10 mM MES, pH 6.0, 20 °C, n = 4
[3] = +150 mV, 1 M KCl, 10 mM MES, pH 6.0, 20 °C
[4] = +150 mV, 10 µM, trans side, 1 M KCl, 10 mM MES, pH 6.0, 20 °C
[5] = +175 mV, trans side, 1 M KCl, 10 mM MES, pH 6.0, 20 °C, n = 4
[6] = +175 mV, 1 M KCl, 10 mM MES, pH 6.0, 20 °C
[7] = +250 mV, trans side, 1 M KCl, 10 mM MES, pH 6.0, 20 °C, n = 4
[8] = +250 mV, 1 M KCl, 10 mM MES, pH 6.0, 20 °C
[9] = 1 M KCl, 10 mM MES, pH 6.0, 20 °C

| Substance | strength of channel–peptide interaction (order) (MOMP channel) | ion-current blockage of MOMP monomer (MOMP channel; [1]) | kon (association rate) (MOMP channel; [2]) | Ka (equilibrium binding constant) (MOMP channel; [3]) | on-rate (range given) (MOMP channel; [4]) | koff (dissociation rate) (MOMP channel; [2]) | association rate kon as a function of applied voltage (MOMP channel) | kon (association rate) (MOMP channel; [5]) | Ka (equilibrium binding constant) (MOMP channel; [6]) | koff (dissociation rate) (MOMP channel; [5]) | kon (association rate) (MOMP channel; [7]) | Ka (equilibrium binding constant) (MOMP channel; [8]) | koff (dissociation rate) (MOMP channel; [7]) | translocation across MOMP (MOMP channel) | residence time, cis vs trans peptide addition (MOMP channel; n = 4) | frequency of binding events, cis vs trans peptide addition (MOMP channel; n = 4) | threshold potential for successful translocation (MOMP channel; [9]) | voltage for pulling peptide through Nocardia channel (Nocardia channel) | other results |
| --- | --- | --- | --- | --- | --- | --- | --- | --- | --- | --- | --- | --- | --- | --- | --- | --- | --- | --- | --- |
| H-RRRRR-OH [Penta-arginine, H-RRRRR-OH trifluoroacetate salt, Mw: 0.798 kDa, from Bachem AG] | Hepta-arginine > Penta-arginine > Tri-arginine | complete monomer blockage | 12.9 ± 1.2 (M^−1 s^−1) × 10^6 | 2.0 ± 0.5 (M^−1) × 10^3 | 13 ± 2 10^6 M^−1 s^−1 | 6.2 ± 0.3 (s^−1) × 10^3 | almost identical increasing values | 20.4 ± 1.2 (M^−1 s^−1) × 10^6 | 4.1 ± 0.3 (M^−1) × 10^3 | 5.0 ± 0.6 (s^−1) × 10^3 | 34.7 ± 0.8 (M^−1 s^−1) × 10^6 | 3.3 ± 0.2 (M^−1) × 10^3 | 10.3 ± 0.8 (s^−1) × 10^3 | translocate across the MOMP channel | did not reveal significant differences | did not reveal significant differences | +175 mV | > –175 mV | koff relative to Hepta-arginine (MOMP channel; Fig. 3B, 10 µM, trans side): about twice higher off-rates; permeation vs voltage (MOMP channel; increasing voltages): permeated faster with increasing voltages |
| Tri-arginine | Hepta-arginine > Penta-arginine > Tri-arginine | visible but very short and not fully resolvable monomer blockages |  |  |  |  |  |  |  |  |  |  |  |  |  |  |  |  | residence time (MOMP channel; +125 to +250 mV, 10 µM, trans side (MOMP cis), corresponds to time resolution of the instrument, 1 M KCl, 10 mM MES, pH 6.0, 20 °C, n = 4): ~ 70 ± 5 µs |
| H-RRRRRRR-OH [Hepta-arginine, H-RRRRRRR-OH trifluoro acetate salt, Mw: 1.111 kDa, from Bachem AG] | Hepta-arginine > Penta-arginine > Tri-arginine | complete monomer blockage | 14.5 ± 1.5 (M^−1 s^−1) × 10^6 | 4.4 ± 0.3 (M^−1) × 10^3 | 13 ± 2 10^6 M^−1 s^−1 | 3.2 ± 0.1 (s^−1) × 10^3 | almost identical increasing values | 22.2 ± 0.8 (M^−1 s^−1) × 10^6 | 8.5 ± 0.2 (M^−1) × 10^3 | 2.6 ± 0.3 (s^−1) × 10^3 | 39.1 ± 0.5 (M^−1 s^−1) × 10^6 | 7.7 ± 0.3 (M^−1) × 10^3 | 5.0 ± 0.8 (s^−1) × 10^3 | translocate across the MOMP channel | did not reveal significant differences | did not reveal significant differences | +175 mV | > −150 mV | number of binding events vs peptide concentration (MOMP channel; 1 to 10 µM, +150 and +250 mV, n = 4): the number of binding events increased with the concentration of the peptide; binding vs translocation, low voltage (MOMP channel; +125 to +175 mV, 10 µM): binds to channel without being translocated; reduction in residence time with voltage (MOMP channel; +175 to +250 mV): reduction of one-fold; binding vs translocation, high voltage (MOMP channel; +175 to +250 mV, 10 µM): successful translocation of the peptide; ion-current blockage, reverse addition (MOMP channel; peptide on cis (ground) side, MOMP on trans side, negative voltages): strong monomer blockages with negative voltages; residence time, end of decrease (MOMP channel; peptide on cis (ground) side, MOMP on trans side, –125 to –250 mV (Fig. S5), final value, 1 M KCl, 10 mM MES, pH 6.0, 20 °C, n = 4): 200 µs; residence time, start of decrease (MOMP channel; peptide on cis (ground) side, MOMP on trans side, –125 to –250 mV (Fig. S5), starting value, 1 M KCl, 10 mM MES, pH 6.0, 20 °C, n = 4): 410 µs |
